Data as given in the CheMixHub ionic liquid set.

Experiment: xn = mol fraction of the nth substance listed

CC[n+]1ccn(C)c1.O=C([O-])C(F)(F)F + OCCN(CCO)CCO
100 kPa
Settings | electrical conductivity, 298.15 K [S/m] | electrical conductivity, 313.15 K [S/m] | viscosity, 293.15 K [mPa·s] | viscosity, 298.15 K [mPa·s] | viscosity, 303.15 K [mPa·s] | viscosity, 313.15 K [mPa·s]
x1 = 0.006 | 0.00085 | 0.0024 | 878 | 581 | 395 | 197.6
x1 = 0.007 | 0.00084 | 0.00237 | 871 | 576 | 392 | 196.1
x2 = 0.393 | 0.423 | 0.76 | 76.3 | 60 | 47.9 | 32
x2 = 0.501 | 0.287 | 0.54 | 98.1 | 75.4 | 59 | 38.1
x2 = 0.6 | 0.182 | 0.37 | 135.1 | 101 | 77 | 47.7
x2 = 0.692 | 0.109 | 0.237 | 190.6 | 139 | 103.5 | 61.2
x2 = 0.778 | 0.061 | 0.143 | 279.5 | 198.3 | 143.8 | 81.2
x2 = 0.857 | 0.0281 | 0.07 | 413 | 284.7 | 201.3 | 108.7
x2 = 0.931 | 0.0095 | 0.0268 | 621 | 419 | 289.4 | 149.9
x2 = 0.966 | 0.00397 | 0.0113 | 751 | 501 | 344 | 174.6
x2 = 0.98 | 0.0025 | 0.007 | 775 | 518 | 354 | 179.3

CCCC[N+](C)(C)C.O=S(=O)([N-]S(=O)(=O)C(F)(F)F)C(F)(F)F + CC(O)CO
101 kPa
Settings | viscosity [mPa·s]
323.15 K, x2 = 0 | 35.6
323.15 K, x2 = 0.8843 | 11.79
328.15 K, x2 = 0.1909 | 19.2
333.15 K, x2 = 0.3054 | 14.35
338.15 K, x2 = 0 | 22.1
338.15 K, x2 = 0.3054 | 12.44
338.15 K, x2 = 0.5274 | 9.87
338.15 K, x2 = 0.8149 | 7.45
343.15 K, x2 = 0 | 19.2
348.15 K, x2 = 0 | 16.81
348.15 K, x2 = 0.1909 | 11.32
348.15 K, x2 = 0.5274 | 7.89
348.15 K, x2 = 0.8149 | 5.76
353.15 K, x2 = 0.8149 | 5.53

C[S+](C)C.O=S(=O)([N-]S(=O)(=O)C(F)(F)F)C(F)(F)F + O=C1CCCO1
Settings | electrical conductivity [S/m]
298.15 K, 101 kPa, x2 = 0.92 | 1.57

CCCCn1cc[nH+]c1.O=S(=O)([N-]S(=O)(=O)C(F)(F)F)C(F)(F)F + N
313.2 K, 101 kPa
Settings | viscosity [mPa·s]
x1 = 0.2924 | 9.9
x1 = 0.337 | 12.9
x1 = 0.4007 | 19.3
x1 = 0.4495 | 24.3
x1 = 0.477 | 27.7
x1 = 0.4904 | 29.1
x1 = 0.575 | 38.7
x1 = 0.6515 | 45.8
x1 = 0.7028 | 51.3
x1 = 0.7906 | 54.5
x1 = 0.8999 | 52.5
x1 = 1 | 47.2

CCCCCC[n+]1ccn(C)c1.F[B-](F)(F)F + CC(C)O
101 kPa
Settings | viscosity [mPa·s]
293.15 K, x2 = 0.9165 | 3.61
303.15 K, x2 = 0.1493 | 68.1
303.15 K, x2 = 0.3752 | 26.9
303.15 K, x2 = 0.5845 | 11.6
303.15 K, x2 = 0.7067 | 7.02
303.15 K, x2 = 0.762 | 5.47
313.15 K, x2 = 0.2992 | 24.9
313.15 K, x2 = 0.762 | 3.99
323.15 K, x2 = 0 | 50.3
323.15 K, x2 = 0.2289 | 21.4
323.15 K, x2 = 0.2992 | 18.8
333.15 K, x2 = 0 | 34
333.15 K, x2 = 0.1493 | 20.7
333.15 K, x2 = 0.3752 | 10.33
333.15 K, x2 = 0.762 | 2.35

COP(=O)([O-])OC.Cn1cc[n+](C)c1 + CCCO
101 kPa
Settings | viscosity [mPa·s]
293.15 K, x2 = 0.3018 | 116.9
298.15 K, x2 = 0 | 291
303.15 K, x2 = 0.1993 | 115.9
303.15 K, x2 = 0.5002 | 34.18
303.15 K, x2 = 0.5996 | 21.48
308.15 K, x2 = 0.1993 | 90.1
313.15 K, x2 = 0.5996 | 15.82
318.15 K, x2 = 0.098 | 74.8
318.15 K, x2 = 0.4 | 30.15
318.15 K, x2 = 0.5002 | 20.5
323.15 K, x2 = 0.3018 | 33.41
323.15 K, x2 = 0.5996 | 12.11
323.15 K, x2 = 0.799 | 4.88

CC(C)=O + CCCC[n+]1ccn(C)c1.F[B-](F)(F)F
Settings | electrical conductivity, 296.15 K [S/m] | viscosity, 303.15 K [mPa·s] | viscosity, 313.15 K [mPa·s] | viscosity, 323.15 K [mPa·s]
100 kPa, x2 = 0 | – | 0.303 | 0.276 | 0.255
101 kPa, x1 = 1 | 0.05 | – | – | –

CC(=O)[O-].CCCC[N+](CCCC)(CCCC)CCCC + CCCOCC(C)O
electrical conductivity [S/m], 101 kPa
Settings | x1 = 0.006949 | x1 = 0.008744 | x1 = 0.02598 | x1 = 0.03298 | x1 = 0.06584 | x1 = 0.09163 | x1 = 0.1232 | x1 = 0.1599 | x1 = 0.2312
248.15 K | 0.000652 | 0.000811 | 0.00218 | 0.00267 | 0.00439 | 0.00514 | 0.00547 | 0.00531 | 0.0042
258.15 K | 0.00115 | 0.00143 | 0.00399 | 0.00493 | 0.00847 | 0.01022 | 0.01125 | 0.01128 | 0.00942
268.15 K | 0.00182 | 0.00229 | 0.00661 | 0.00825 | 0.01473 | 0.01821 | 0.02062 | 0.02133 | 0.01883
278.15 K | 0.00269 | 0.0034 | 0.01016 | 0.01277 | 0.02353 | 0.02971 | 0.03448 | 0.03666 | 0.03401
288.15 K | 0.00374 | 0.00478 | 0.01461 | 0.01849 | 0.03502 | 0.04505 | 0.05341 | 0.05816 | 0.05632
298.15 K | 0.00498 | 0.00635 | 0.01995 | 0.02547 | 0.04947 | 0.06468 | 0.07808 | 0.08671 | 0.08711
308.15 K | 0.00637 | 0.00816 | 0.02625 | 0.03367 | 0.06676 | 0.08851 | 0.1086 | 0.1227 | 0.1274
313.15 K | 0.0071 | 0.00913 | 0.02965 | 0.03815 | 0.07641 | 0.1011 | 0.126 | 0.1436 | 0.1513
